Assays:
Assay type in all cases: cell-based
CAK11 = assay: cell viability IC50 over 72 hours, CAK11 kidney cell line
Protocol: (§1) FIG. 4 details the sensitivity of various cell lines to LP-184, showing cell death over 72 hours. Sensitivity, gauged by IC50 data, reflects how effectively a substance can inhibit a particular biological or biochemical function. […] This IC50 value, indicating the concentration needed to reduce cell viability by 50%, is key to understanding the compound's efficacy and the temporal response of the cells to the substance. Such analyses are vital for new drug development and therapeutic approaches, offering important insights into how cells react to different compounds over time.
as §1, with “Sensitivity,” for “FIG. 4 details the sensitivity of various cell lines to LP-184, showing cell death over 72 hours. Sensitivity,”

A498 = assay: cell viability IC50 over 72 hours, A498 kidney cell line; conditions: for IC50: Homo sapiens, A498 cell line, Kidney, 72 hours
Protocol: as §1
as §1, with “Sensitivity,” for “FIG. 4 details the sensitivity of various cell lines to LP-184, showing cell death over 72 hours. Sensitivity,”

769P = assay: sensitivity of renal cell line 769P to LP-184; conditions: 769P cell line
From the text: (§2) By contrast, the RPE1 cell lines acted as a negative control, showcasing a distinct reaction to the treatment.

ACHN = assay: cell viability IC50 over 72 hours, ACHN kidney cell line; conditions: Homo sapiens
Protocol: as §1
as §1, with “Sensitivity,” for “FIG. 4 details the sensitivity of various cell lines to LP-184, showing cell death over 72 hours. Sensitivity,”

SN12C = assay: cell viability IC50 over 72 hours, SN12C kidney cell line; conditions: Homo sapiens
Protocol: as §1
as §1, with “Sensitivity,” for “FIG. 4 details the sensitivity of various cell lines to LP-184, showing cell death over 72 hours. Sensitivity,”

UO31 = assay: cell viability IC50 over 72 hours, UO31 kidney cell line; conditions: Homo sapiens, UO-31
Protocol: as §1
as §1, with “Sensitivity,” for “FIG. 4 details the sensitivity of various cell lines to LP-184, showing cell death over 72 hours. Sensitivity,”

X7860 = assay: cell viability IC50 over 72 hours, X7860 kidney cell line
Protocol: as §1
as §1, with “Sensitivity,” for “FIG. 4 details the sensitivity of various cell lines to LP-184, showing cell death over 72 hours. Sensitivity,”

786O = assay: sensitivity of renal cell line 786O to LP-184; conditions: 786O cell line
From the text: as §2

TK10 = assay: cell viability IC50 over 72 hours, TK10 kidney cell line; conditions: Homo sapiens, TK-10
Protocol: as §1
as §1, with “Sensitivity,” for “FIG. 4 details the sensitivity of various cell lines to LP-184, showing cell death over 72 hours. Sensitivity,”

RXF393 = assay: cell viability IC50 over 72 hours, RXF393 kidney cell line; conditions: for IC50: Homo sapiens, RXF 393, RXF393 cell line, Kidney, 72 hours
Protocol: as §1
as §1, with “Sensitivity,” for “FIG. 4 details the sensitivity of various cell lines to LP-184, showing cell death over 72 hours. Sensitivity,”

Row | Compound | IC50 (CAK11) [µM] | sensitivity of cell line (in words) (A498; A498 clear cell renal carcinoma cell line) | IC50 (A498) [µM] | sensitivity of cell line (in words) (769P) | IC50 (ACHN) [µM] | IC50 (SN12C) [µM] | IC50 (UO31) [µM] | IC50 (X7860) [µM] | sensitivity of cell line (in words) (786O) | IC50 (TK10) [µM] | IC50 (RXF393) [µM] | sensitivity of cell line (in words) (RXF393; RXF393 clear cell renal carcinoma cell line)
1 | CC1=C(CN(O)C(N)=O)C2=C(C)C3(CC3)[C@@](C)(O)C(=O)C2=C1 [LP-184, (−)-hydroxyureamethyl acylfulvene] | 0.282 | high sensitivity | 0.179 | low sensitivity | 0.222 | 0.349 | 0.178 | 0.331 | low sensitivity | 0.314 | 0.152 | high sensitivity
2 | CC1=C(CN(O)C(N)=O)C2=C(C)C3(CC3)[C@](C)(O)C(=O)C2=C1 [LP-284, (+)-hydroxyureamethyl acylfulvene] | 1.91 |  | 1.35 |  | 1.13 | 2.62 | 0.254 | 2.24 |  | 2.01 | 0.328 | 

From patent publication US20260007617A1, “METHOD FOR TREATING RENAL CELL CARCINOMA OR CANCER” (Lantern Pharma Inc., priority 2023, published 2026)
